{"source": "patent US20220232869A1", "about": "“Steviol Glycoside Sweeteners with Improved Flavor Profiles” (The Coca-Cola Company, priority 2015, published 2022)", "assay": "Sensory evaluation of 5 Brix and 10 Brix acidified water beverages by 15 panelists", "format": "in vivo", "design": "Astringency / Acidity / Sweet Aftertaste / Bitter Aftertaste / Overall Liking / Sweetness / Bitterness: scale not given here", "details": "panel score", "description": "5 Brix and 10 Brix beverages were prepared by combining purified water containing 303 ppm citric acid and a sweetener. The 5 Brix beverages contained one of the following sweeteners: (i) 5% (wt/wt) sugar, (ii) 200 ppm A95 or (iii) 200 ppm of a 70 wt % Reb D/30 wt % Reb M blend. The 10 Brix beverages contained one of the following sweeteners: (i) 10% (wt/wt) sugar, (ii) 900 ppm A95 or (iii) 900 ppm of a 70 wt % Reb D/30wt % Reb M blend.\nThe beverages were served at room temperature in 2 oz clear plastic sample cups. 15 panelists evaluated the beverages for various tastes and flavors. Prior to sample evaluation, all panelists rinsed their palate with warm water. The assessors were instructed to take a sip of each beverage and rate the mouth feel and taste/flavor characteristics. 15 seconds after ingestion panelists were instructed to rate sweetness linger and aftertaste. Between samples evaluation a 1 minute rest period was allowed during which they rinsed their palate with warm water and 0.25% NaCl solution.\nThe various tastes and flavors measured in the evaluation are defined as follows: […]", "key": {"[1]": {"details": "5 brix target, 5% sugar, 200 ppm A95 or 200 ppm blend"}, "[2]": {"details": "10 brix target, 10% sugar, 900 ppm A95 or 900 ppm blend"}}}
{"smiles": "OC[C@H]1O[C@@](CO)(O[C@H]2O[C@H](CO)[C@@H](O)[C@H](O)[C@H]2O)[C@@H](O)[C@@H]1O", "note": "[Sugar]", "values": [{"measurement": "Acidity", "setting": "[1]", "result": 0.99}, {"measurement": "Astringency", "setting": "[1]", "result": 0.84}, {"measurement": "Bitter Aftertaste", "setting": "[1]", "result": 0.33}, {"measurement": "Bitterness", "setting": "[1]", "result": 0.75}, {"measurement": "Off-Note (Metallic/Licorice)", "setting": "[1]", "result": 0.52}, {"measurement": "Overall Liking", "setting": "[1]", "result": 4.96}, {"measurement": "Sweet Aftertaste", "setting": "[1]", "result": 0.56}, {"measurement": "Sweetness", "setting": "[1]", "result": 4.91}, {"measurement": "Acidity", "setting": "[2]", "result": 1.08}, {"measurement": "Astringency", "setting": "[2]", "result": 0.92}, {"measurement": "Bitter Aftertaste", "setting": "[2]", "result": 0.37}, {"measurement": "Bitterness", "setting": "[2]", "result": 0.55}, {"measurement": "Off-Note (Metallic/Licorice)", "setting": "[2]", "result": 0.51}, {"measurement": "Overall Liking", "setting": "[2]", "result": 6.34}, {"measurement": "Sweet Aftertaste", "setting": "[2]", "result": 1.08}, {"measurement": "Sweetness", "setting": "[2]", "result": 8.45}]}
